Measured values: US12448389B2, “BRM targeting compounds and associated methods of use” (Prelude Therapeutics Incorporated, priority 2020, dated 2025)

What was measured:
SMARCA2-HiBiT = target: T1, SMARCA2-HiBiT (Homo sapiens, UniProt P51531); experiment: SMARCA2 HiBiT degradation assay in HeLa cells; assay type: cell-based; conditions: 18 hours incubation; for DC50: read-out: HeLa_HiBit-SM2 DC50; for Dmax: HeLa, read-out: HeLa-HiBit-SM2 Dmax (%)
T1 construct: SMARCA2-HiBiT knock-in Hela monoclonal cell (CS302366); host or cells: HeLa monoclonal knock-in line (CRISPR HiBiT knock-in at the endogenous locus, heterozygous)
Protocol: (§1) HiBiT peptide knock-in of SMARCA2 in LgBiT expressing HEK293T cells was performed by CRISPR-mediated tagging system as described Promega. The homozygous HiBiT knock-in on c-terminus SMARCA2 was confirmed by sanger sequence. SMARCA2-HiBiT knock-in Hela monoclonal cell (CS302366) and SMARCA4-HiBiT knock-in Hela monoclonal cell (CS3023226) were purchased from Promega. The heterozygous HiBiT-knock-in was confirmed by sanger sequence in both SMARCA2-HiBiT and SMARCA4-HiBiT monoclonal cells.
(§2) SMARCA2 HiBiT and SMARCA4 HiBiT Degradation Assay in HeLa Cells
(§3) Dispense 10 ul aliquot of prepared Hela-SMARCA2-HiBiT or Hela-SMARCA4-HiBiT cells (1:1 ratio of cells:Trypan Blue (#1450013, Bio-Rad)) onto cell counting slide (#145-0011, Bio-Rad) and obtain cell density and cell viability using cell counter (TC20, Bio-Rad). Remove appropriate volume of resuspended cells from culture flask to accommodate 2500 cells/well @20 μL/well. Transfer Hela-HiBiT cells to 50 mL conical (#430290, Corning). Spin down at 1000 rpm for 5 min using tabletop centrifuge (SPINCHRON 15, Beckman). Discard supernatant and resuspend cell pellet in modified EMEM (#30-2003, ATCC) cell culture media containing 10% FBS (F2422-500ML, Sigma), and 1×Penicillin/Streptomycin (200 g/L) (30-002-CI, Corning) to a cell density of 125,000 cells/mL. Dispense 20 μL of resuspended Hela-HiBit cells per well in 384-well TC treated plate (#12-565-343, Thermo Scientific) using standard cassette (#50950372, Thermo Scientific) on Multidrop Combi (#5840310, Thermo Scientific) inside laminar flow cabinet. Dispense test compounds onto plates using digital liquid dispenser (D300E, Tecan). Incubate plates in humidified tissue culture incubator @37° C. for 18 hours. Add 20 μL of prepared Nano-Glo® HiBiT Lytic detection buffer (N3050, Promega) to each well of 384-well plate using small tube cassette (#24073295, Thermo Scientific) on Multidrop Combi, incubate @RT for 30-60 min. Read plates on microplate reader (Envision 2105, PerkinElmer) using 384 well Ultra-Sensitive luminescence mode. Raw data files and compound information reports are swept into centralized data lake and deconvoluted using automated scripts designed by TetraScience, Inc. Data analysis, curve-fitting and reporting done in Dotmatics Informatics Suite using Screening Ultra module.

SMARCA4-HiBiT = target: T2, SMARCA4-HiBiT (Homo sapiens, UniProt P51532); experiment: SMARCA4 HiBiT degradation assay in HeLa cells; assay type: cell-based; conditions: 18 hours incubation; for DC50: read-out: HeLa-HiBit-SM4 DC50; for Dmax: HeLa, read-out: HeLa-HiBit-SM4 Dmax (%)
T2 construct: SMARCA4-HiBiT knock-in Hela monoclonal cell (CS3023226); host or cells: HeLa monoclonal knock-in line (CRISPR HiBiT knock-in at the endogenous locus, heterozygous)
Protocol: as §1, §2, §3

T2 sequence (P51532 whole entry): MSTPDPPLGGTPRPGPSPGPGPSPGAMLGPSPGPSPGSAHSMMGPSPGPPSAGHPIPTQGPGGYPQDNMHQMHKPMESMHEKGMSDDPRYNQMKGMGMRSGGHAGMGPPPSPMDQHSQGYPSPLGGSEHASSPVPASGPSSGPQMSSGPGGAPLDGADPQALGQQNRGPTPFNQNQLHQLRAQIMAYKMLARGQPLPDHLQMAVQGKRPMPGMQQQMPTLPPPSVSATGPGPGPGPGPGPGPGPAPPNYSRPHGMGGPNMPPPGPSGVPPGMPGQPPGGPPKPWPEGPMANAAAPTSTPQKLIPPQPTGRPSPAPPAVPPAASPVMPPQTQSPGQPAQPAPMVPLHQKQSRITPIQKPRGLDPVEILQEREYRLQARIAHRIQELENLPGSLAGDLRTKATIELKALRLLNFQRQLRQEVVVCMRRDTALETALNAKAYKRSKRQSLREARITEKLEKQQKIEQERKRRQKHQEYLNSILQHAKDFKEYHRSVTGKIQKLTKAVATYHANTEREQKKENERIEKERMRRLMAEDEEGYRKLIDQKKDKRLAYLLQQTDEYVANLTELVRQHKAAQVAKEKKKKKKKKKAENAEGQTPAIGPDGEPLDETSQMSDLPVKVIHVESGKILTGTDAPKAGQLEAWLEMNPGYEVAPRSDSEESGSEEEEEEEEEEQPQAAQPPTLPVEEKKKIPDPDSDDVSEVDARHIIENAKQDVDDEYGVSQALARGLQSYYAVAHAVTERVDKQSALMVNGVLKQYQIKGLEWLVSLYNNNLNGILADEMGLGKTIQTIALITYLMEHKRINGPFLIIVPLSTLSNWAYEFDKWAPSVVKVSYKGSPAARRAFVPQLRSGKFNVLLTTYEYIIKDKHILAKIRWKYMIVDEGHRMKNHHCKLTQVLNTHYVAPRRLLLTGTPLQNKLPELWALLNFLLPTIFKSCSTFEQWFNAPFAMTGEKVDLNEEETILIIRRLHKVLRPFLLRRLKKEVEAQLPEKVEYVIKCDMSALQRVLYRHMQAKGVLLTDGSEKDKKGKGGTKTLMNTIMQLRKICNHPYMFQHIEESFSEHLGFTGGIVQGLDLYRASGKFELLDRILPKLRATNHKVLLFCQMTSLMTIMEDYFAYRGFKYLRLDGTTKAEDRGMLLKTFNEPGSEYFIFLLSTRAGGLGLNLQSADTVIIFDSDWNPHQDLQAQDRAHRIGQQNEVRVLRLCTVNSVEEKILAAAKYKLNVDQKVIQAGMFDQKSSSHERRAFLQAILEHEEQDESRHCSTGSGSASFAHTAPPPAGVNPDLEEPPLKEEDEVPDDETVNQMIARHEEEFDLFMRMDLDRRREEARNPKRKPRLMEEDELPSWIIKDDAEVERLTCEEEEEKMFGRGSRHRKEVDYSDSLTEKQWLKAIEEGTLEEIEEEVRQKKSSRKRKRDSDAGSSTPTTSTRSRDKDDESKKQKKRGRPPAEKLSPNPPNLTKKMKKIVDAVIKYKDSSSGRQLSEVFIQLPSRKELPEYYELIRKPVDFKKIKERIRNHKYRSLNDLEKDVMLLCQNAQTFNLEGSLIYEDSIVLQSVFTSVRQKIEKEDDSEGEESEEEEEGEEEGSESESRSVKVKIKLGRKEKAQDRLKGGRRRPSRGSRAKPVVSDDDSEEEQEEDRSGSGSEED
T1 sequence (P51531 whole entry): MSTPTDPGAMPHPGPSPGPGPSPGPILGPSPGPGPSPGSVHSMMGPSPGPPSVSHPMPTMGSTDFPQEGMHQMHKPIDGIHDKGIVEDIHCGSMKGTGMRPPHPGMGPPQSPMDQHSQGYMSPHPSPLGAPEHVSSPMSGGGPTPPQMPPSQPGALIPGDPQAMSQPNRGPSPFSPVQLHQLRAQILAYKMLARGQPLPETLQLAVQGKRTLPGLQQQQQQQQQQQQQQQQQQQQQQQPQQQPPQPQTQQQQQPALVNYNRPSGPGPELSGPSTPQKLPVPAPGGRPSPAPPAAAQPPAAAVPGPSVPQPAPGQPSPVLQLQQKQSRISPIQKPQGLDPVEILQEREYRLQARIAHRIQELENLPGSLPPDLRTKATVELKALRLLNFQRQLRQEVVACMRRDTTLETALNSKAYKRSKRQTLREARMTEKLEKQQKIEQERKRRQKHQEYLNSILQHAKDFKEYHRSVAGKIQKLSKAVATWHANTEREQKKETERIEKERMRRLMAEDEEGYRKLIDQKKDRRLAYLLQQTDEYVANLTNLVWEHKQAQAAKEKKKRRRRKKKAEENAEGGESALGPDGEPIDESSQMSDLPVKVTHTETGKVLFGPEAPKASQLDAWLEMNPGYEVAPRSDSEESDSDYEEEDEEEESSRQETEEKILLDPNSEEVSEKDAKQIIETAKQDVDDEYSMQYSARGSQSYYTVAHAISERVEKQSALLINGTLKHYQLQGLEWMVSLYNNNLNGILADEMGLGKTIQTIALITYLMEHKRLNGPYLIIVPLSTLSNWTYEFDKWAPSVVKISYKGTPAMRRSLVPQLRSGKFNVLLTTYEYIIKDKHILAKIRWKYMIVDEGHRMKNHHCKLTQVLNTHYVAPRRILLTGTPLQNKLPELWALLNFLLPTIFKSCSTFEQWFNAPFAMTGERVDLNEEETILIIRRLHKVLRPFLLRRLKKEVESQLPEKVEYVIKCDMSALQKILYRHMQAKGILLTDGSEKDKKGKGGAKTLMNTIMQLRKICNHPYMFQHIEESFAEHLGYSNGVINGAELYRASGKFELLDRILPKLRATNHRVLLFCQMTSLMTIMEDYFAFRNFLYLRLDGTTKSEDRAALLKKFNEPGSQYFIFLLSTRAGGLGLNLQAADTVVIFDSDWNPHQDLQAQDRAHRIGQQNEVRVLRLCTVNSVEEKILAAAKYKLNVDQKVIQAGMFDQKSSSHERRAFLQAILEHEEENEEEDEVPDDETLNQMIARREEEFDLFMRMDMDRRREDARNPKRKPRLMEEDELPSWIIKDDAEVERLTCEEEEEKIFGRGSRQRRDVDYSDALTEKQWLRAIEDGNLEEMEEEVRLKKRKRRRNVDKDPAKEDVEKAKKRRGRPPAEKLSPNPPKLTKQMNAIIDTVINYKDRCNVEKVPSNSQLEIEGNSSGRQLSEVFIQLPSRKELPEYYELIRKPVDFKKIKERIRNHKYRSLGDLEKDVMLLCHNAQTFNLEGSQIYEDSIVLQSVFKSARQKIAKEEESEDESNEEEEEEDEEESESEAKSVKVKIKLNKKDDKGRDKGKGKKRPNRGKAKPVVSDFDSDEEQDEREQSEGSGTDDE

## CC(C)(C)C(=O)OCN1C(=O)CCC(N2C(=O)c3ccc(N4CCC(CN5CCC(CN6CCN7c8cc(-c9ccccc9O)nnc8NC[C@H]7C6)CC5)CC4)cc3C2=O)C1=O (stereo partly drawn) [Example 34, (3-(5-(4-((4-(((S)-2-(2-hydroxyphenyl)-5,6,6a,7,9,10-hexahydro-8H-pyrazino [1′,2′:4,5]pyrazino[2,3-c]pyridazin-8-yl)methyl)piperidin-1-yl)methyl)piperidin-1-yl)-1,3-dioxoisoindolin-2-yl)-2,6-dioxopiperidin-1-yl)methyl pivalate]
SMARCA2-HiBiT
  DC50: < 0.01 µM
  Dmax: > 85%
SMARCA4-HiBiT
  DC50: < 0.01 µM
  Dmax: > 85%

## O=C1CCC(N2C(=O)c3ccc(N4CCC(CN5CC6(CC(CN7CCN8c9cc(-c%10ccccc%10O)nnc9NC[C@H]8C7)C6)C5)CC4)cc3C2=O)C(=O)N1 (stereo partly drawn) [Example 41, 2-(2,6-dioxopiperidin-3-yl)-5-(4-((6-(((S)-2-(2-hydroxyphenyl)-5,6,6a,7,9,10-hexahydro-8H-pyrazino[1′,2′:4,5]pyrazino[2,3-c]pyridazin-8-yl)methyl)-2-azaspiro[3.3]heptan-2-yl)methyl)piperidin-1-yl)isoindoline-1,3-dione]
SMARCA2-HiBiT
  DC50: < 0.01 µM
  Dmax: > 85%
SMARCA4-HiBiT
  DC50: < 0.01 µM
  Dmax: > 85%

## O=C1CCC(N2Cc3cc(C4CCN(C5CCN(CCCN6CCN7c8cc(-c9ccccc9O)nnc8NC[C@H]7C6)CC5)CC4)ccc3C2=O)C(=O)N1 (stereo partly drawn) [Example 209, 3-(5-(1′-(3-((S)-2-(2-hydroxyphenyl)-5,6,6a,7,9,10-hexahydro-8H-pyrazino[1′,2′:4,5]pyrazino[2,3-c]pyridazin-8-yl)propyl)-[1,4′-bipiperidin]-4-yl)-1-oxoisoindolin-2-yl)piperidine-2,6-dione]
SMARCA2-HiBiT
  DC50: < 0.01 µM
  Dmax: > 85%
SMARCA4-HiBiT
  DC50: < 0.01 µM
  Dmax: > 85%

## O=C1CCC(N2Cc3ccc(N4CCC(CN5CCN(C(=O)N6CCN7c8cc(-c9ccccc9O)nnc8NC[C@H]7C6)CC5)CC4)cc3C2=O)C(=O)N1 (stereo partly drawn) [Example 95, 3-(6-(4-((4-((S)-2-(2-hydroxyphenyl)-6,6a,7,8,9,10-hexahydro-5H-pyrazino [1′,2′:4,5]pyrazino[2,3-c]pyridazine-8-carbonyl)piperazin-1-yl)methyl)piperidin-1-yl)-1-oxoisoindolin-2-yl)piperidine-2,6-dione]
SMARCA2-HiBiT
  DC50: < 0.01 µM
  Dmax: > 85%
SMARCA4-HiBiT
  DC50: < 0.01 µM
  Dmax: 75 to 85%

## O=C1CCC(N2C(=O)c3ccc(N4CCC(N5CCN6c7cc(-c8ccccc8O)nnc7NC[C@H]6C5)C4)cc3C2=O)C(=O)N1 (stereo partly drawn) [Example 156, 2-(2,6-dioxopiperidin-3-yl)-5-(3-((S)-2-(2-hydroxyphenyl)-5,6,6a,7,9,10-hexahydro-8H-pyrazino[1′,2′:4,5]pyrazino[2,3-c]pyridazin-8-yl)pyrrolidin-1-yl)isoindoline-1,3-dione]
SMARCA2-HiBiT
  DC50: 0.01 to 0.1 µM
  Dmax: 75 to 85%
SMARCA4-HiBiT
  DC50: 0.01 to 0.1 µM
  Dmax: 50 to 75%

## O=C1CCC(N2Cc3ccc(N4CC[C@H](CN5C[C@@H]6[C@H](C5)[C@H]6CN5CCN6c7cc(-c8ccccc8O)nnc7NC[C@H]6C5)[C@@H](F)C4)cc3C2=O)C(=O)N1 (stereo partly drawn) [Example 203, 3-(6-((3R,4R)-3-fluoro-4-(((1R,5S,6R)-6-(((S)-2-(2-hydroxyphenyl)-5,6,6a,7,9,10-hexahydro-8H-pyrazino[1′,2′:4,5]pyrazino[2,3-c]pyridazin-8-yl)methyl)-3-azabicyclo[3.1.0]hexan-3-yl)methyl)piperidin-1-yl)-1-oxoisoindolin-2-yl)piperidine-2,6-dione]
SMARCA2-HiBiT
  DC50: < 0.01 µM
  Dmax: > 85%
SMARCA4-HiBiT
  DC50: < 0.01 µM
  Dmax: > 85%

## CC1(CN2C[C@@H]3[C@@H](CN4CCN5c6cc(-c7ccccc7O)nnc6NC[C@H]5C4)[C@@H]3C2)CCN(c2ccc3c(c2)C(=O)N(C2CCC(=O)NC2=O)C3=O)CC1 (stereo partly drawn) [Example 91, 2-(2,6-dioxopiperidin-3-yl)-5-(4-(((1R,5S,6r)-6-(((S)-2-(2-hydroxyphenyl)-5,6,6a,7,9,10-hexahydro-8H-pyrazino[1′,2′:4,5]pyrazino[2,3-c]pyridazin-8-yl)methyl)-3-azabicyclo[3.1.0]hexan-3-yl)methyl)-4-methylpiperidin-1-yl)isoindoline-1,3-dione]
SMARCA2-HiBiT
  DC50: < 0.01 µM
  Dmax: > 85%
SMARCA4-HiBiT
  DC50: 0.01 to 0.1 µM
  Dmax: 50 to 75%

## O=C1CCC(N2C(=O)c3ccc(N4CCC(NC5CCC(CN6CCN7c8cc(-c9ccccc9O)nnc8NC[C@H]7C6)CC5)CC4)cc3C2=O)C(=O)N1 (stereo partly drawn) [Example 163, 2-(2,6-dioxopiperidin-3-yl)-5-[4-[[4-[[(10S)-4-(2-hydroxyphenyl)-1,5,6,8,12-pentazatricyclo[8.4.0.02,7]tetradeca-2,4,6-trien-12-yl]methyl]cyclohexyl]amino]piperidin-1-yl]isoindole-1,3-dione]
SMARCA2-HiBiT
  DC50: < 0.01 µM
  Dmax: > 85%
SMARCA4-HiBiT
  DC50: < 0.01 µM
  Dmax: > 85%

## O=C1CCC(N2C(=O)c3ccc(N4CCC(CN5C[C@H]6C[C@H](CN7CCN8c9cc(-c%10ccccc%10O)nnc9NC[C@H]8C7)C[C@H]6C5)CC4)cc3C2=O)C(=O)N1 (stereo partly drawn) [Example 45, 2-(2,6-dioxopiperidin-3-yl)-5-(4-(((3aR,5s,6aS)-5-(((S)-2-(2-hydroxyphenyl)-5,6,6a,7,9,10-hexahydro-8H-pyrazino [1′,2′:4,5]pyrazino[2,3-c]pyridazin-8-yl)methyl)hexahydrocyclopenta[c]pyrrol-2(1H)-yl)methyl)piperidin-1-yl)isoindoline-1,3-dione]
SMARCA2-HiBiT
  DC50: < 0.01 µM
  Dmax: > 85%
SMARCA4-HiBiT
  DC50: < 0.01 µM
  Dmax: > 85%

## O=C1CCC(N2Cc3ccc(N4CC(CN5C[C@@H]6[C@H](C5)[C@H]6CN5CCN6c7cc(-c8ccccc8O)nnc7NC[C@H]6C5)C4)cc3C2=O)C(=O)N1 (stereo partly drawn) [Example 108, 3-(6-(3-(((1R,5S,6r)-6-(((S)-2-(2-hydroxyphenyl)-5,6,6a,7,9,10-hexahydro-8H-pyrazino[1′,2′:4,5]pyrazino[2,3-c]pyridazin-8-yl)methyl)-3-azabicyclo[3.1,0]hexan-3-yl)methyl)azetidin-1-yl)-1-oxoisoindolin-2-yl)piperidine-2,6-dione]
SMARCA2-HiBiT
  DC50: < 0.01 µM
  Dmax: > 85%
SMARCA4-HiBiT
  DC50: < 0.01 µM
  Dmax: > 85%

## O=C1CCC(N2C(=O)c3ccc(N4CCCC5(CCN(CCN6CCN7c8cc(-c9ccccc9O)nnc8NC[C@H]7C6)CC5)C4)cc3C2=O)C(=O)N1 (stereo partly drawn) [Example 94, 2-(2,6-dioxopiperidin-3-yl)-5-(9-(2-((S)-2-(2-hydroxyphenyl)-5,6,6a,7,9,10-hexahydro-8H-pyrazino[1′,2′:4,5]pyrazino[2,3-c]pyridazin-8-yl)ethyl)-2,9-diazaspiro [5.5]undecan-2-yl) isoindoline-1,3-dione]
SMARCA2-HiBiT
  DC50: < 0.01 µM
  Dmax: 50 to 75%
SMARCA4-HiBiT
  DC50: < 0.01 µM
  Dmax: 50 to 75%

## O=C1CCC(N2C(=O)c3ccc(N4CCC(CCN5CCC(CN6CCN7c8cc(-c9ccccc9O)nnc8NC[C@H]7C6)CC5)CC4)cc3C2=O)C(=O)N1 (stereo partly drawn) [Example 224, 2-(2,6-dioxopiperidin-3-yl)-5-(4-(2-(4-(((S)-2-(2-hydroxyphenyl)-5,6,6a,7,9,10-hexahydro-8H-pyrazino[1′,2′:4,5]pyrazino[2,3-c]pyridazin-8-yl)methyl)piperidin-1-yl)ethyl)piperidin-1-yl)isoindoline-1,3-dione]
SMARCA2-HiBiT
  DC50: < 0.01 µM
  Dmax: 75 to 85%
SMARCA4-HiBiT
  DC50: < 0.01 µM
  Dmax: 75 to 85%

## O=C1CCC(N2Cc3ccc(N4CC(CN5CCN(C(=O)N6CCN7c8cc(-c9ccccc9O)nnc8NC[C@H]7C6)CC5)C4)cc3C2=O)C(=O)N1 (stereo partly drawn) [Example 107, 3-(6-(3-((4-((S)-2-(2-hydroxyphenyl)-6,6a,7,8,9,10-hexahydro-5H-pyrazino[1′,2′:4,5]pyrazino[2,3-c]pyridazine-8-carbonyl)piperazin-1-yl)methyl)azetidin-1-yl)-1-oxoisoindolin-2-yl)piperidine-2,6-dione]
SMARCA2-HiBiT
  DC50: < 0.01 µM
  Dmax: > 85%
SMARCA4-HiBiT
  DC50: 0.01 to 0.1 µM
  Dmax: 75 to 85%
